We go through 4 compounds from patent publication US20110189174A1, “COMPOSITIONS AND METHODS FOR TREATING, REDUCING, AMELIORATING, ALLEVIATING, OR INHIBITING PROGRESSION OF, PATHOGENIC OCULAR NEOVASCULARIZATION” (priority 2010, published 2011).

Values joined by “and” are separate entries in the source; they are usually repeats but may differ in a detail not shown here. Identical values can stand only once. Marks after values point to notes of the source that are not given here.

Assay [1] concerns human retinal endothelial cells (HREC). Put plainly: Testing 4: VEGF-induced HREC proliferation (MTS assay), Avastin with or without BOL-303050-X. In kind it is cell-based. The following applies: for HREC proliferation in the presence of VEGF, compound alone: VEGF 10 ng/ml, 3 days. On the procedure: HREC were first cultured overnight in a 96-well plate coated with fibronectin. The next day, cells were serum-starved for 2 hours before treatment. […] The cells were then cultured at 37° C., 5% CO2, and 95% humidity for another 3 days.
A 96-well plate was coated with human fibronectin (10 μg/ml) at 37° C. for 5 h. HREC were collected from flasks by EDTA-trypsin treatment and re-suspended in 10% FBS CS-C medium at 18,000 cells/ml. Cells (200 μl/well) were added to the plate and cultured overnight at 37° C., 5% CO2, and 95% humidity. The next day, medium was aspirated and 200 μl/well serum-free medium was added for 2 h at 37° C., 5% CO2, and 95% humidity.
Normal IgG was added in such a way that all groups contained the same amount of IgG proteins. All medium solutions were incubated for 1 h at 37° C., 5% CO2, and 95% humidity. After carefully aspirating the medium from cells, 200 μl of the medium containing different agents were added into appropriate wells. The cells were further cultured for 3 days.
At the end of incubation, the medium was carefully aspirated from cells and 120 μl of MTS working solution was added into all wells including four blank wells (without cells). The plate was incubated at 37° C., 5% CO2, and 95% humidity for 1 hour and then read by a plate reader at 490 nm wavelength.
Median optical density (OD) was generated from different groups. Data were expressed as mean±SEM of the OD values. Statistical analysis was performed using two-way ANOVA followed by the contrast procedure after Box-Cox transformations if needed, and p<0.05 was considered statistically significant. […] All the data from the individual wells were fitted to a re-parameterized four-parameter logistic equation to obtain IC50 using similar methodology as that previously described and utilizing the statistical analysis software JMP (SAS Institute, Cary, N.C.).

The test system of assay [2] is laser-induced CNV in monkeys. Put plainly: Laser-induced choroidal neovascularization in monkeys, fluorescein angiography lesion grading. To be noted: for Incidence of CNV lesions, Lesion Grade I (% Total) / Incidence of CNV lesions, Lesion Grade II (% Total) / Incidence of CNV lesions, Lesion Grade III (% Total) / Incidence of CNV lesions, Lesion Grade IV (% Total): intravitreal, both eyes, days 1 and 15, 1.5 mg/eye (Lucentis 0.5 mg/eye); for Overall grade IV lesions versus vehicle control group: all time points together, Chi square test; for Incidence of grade IV lesions compared to vehicle control: days 22, 29 and 37, 1.5 mg/eye in oil formulation; for Overall Grade IV lesions (%): days 22, 29 and 37 summed, 1.5 mg/eye intravitreal days 1 and 15. It counts as in vivo, cynomolgus monkeys (Macaca fascicularis). On the procedure:
Study was performed in three phases. In phases Ia and Ib, the behavior of the suspension in aqueous (Ia) and oil (Ib) formulations, and multiple dosing regimens as well as any adverse effect due to multiple dosing at 3 mg/eye (Ia) or 1.5 (Ib) were investigated. In phase II test articles were administered twice during the study period on days 1 and 15. Eyes were examined with an indirect ophthalmoscope and fundus camera.
Adult male cynomolgus monkeys (Macaca fascicularis) age 2-7 years old were used to test the efficacy of BOL-303050-X, BOL-303054-X and BOL-303055-X. Lucentis® (ranibizumab) was used as historic control.
Both eyes of 46 monkeys were examined at baseline and then 42 animals were randomized into 5 groups. On Phase II Day 8 of Dosing, the animals were anesthetized with ketamine and dexmedetomidine and the macula of each eye of the animals in Groups 1 through […] underwent laser treatment by a retinal surgeon with a 532 nm diode green laser (OcuLight GL, IRIDEX Corp. Inc., Mountain View, Calif.) using a slit lamp delivery system and a Kaufman-Wallow (Ocular Instruments Inc, Bellevue, Wash.) plano fundus contact lens with Gonak (2.5%) as the coupling agent. Nine laser spot areas were symmetrically placed in the macula of each eye. The laser parameters included a 75 micron spot size and 0.1 second duration. The power setting used was assessed by the ability to produce a blister and a small hemorrhage. […] For areas not adjacent to the fovea, the initial power setting was 500 mW; if a second spot was placed, the power was set to 650 mW. For the area adjacent to the fovea the power settings were 400 mW (initial treatment) and 550 mW (second treatment). At the discretion of the retinal surgeon, power settings were adjusted based on observations at the time of laser. Power setting used for each spot was documented as well as number of burns per spot and whether hemorrhage occurred.
Once the phase Ib study was completed, and it was established that the drug suspension in oil would not interfere with either laser administration, evaluation of CNV or cause adverse effects, phase II was initiated. On days 1, and 15 both eyes of monkeys received 50 μL of Lucentis (0.5 mg/eye), vehicle (0 mg/eye), BOL-303050-X (1.5 mg/eye), BOL-303054-X (1.5 mg/eye) or BOL-303055-X (1.5 mg/eye) (Table 2). Intravitreous injection was performed for each by eye aiming towards mid-vitreous body. Dosing in the right eye was alternated for successive doses (as applicable) at approximately the 11 o'clock and 10 o'clock positions. Dosing in the left eye was alternated for successive doses (as applicable) from approximately the 1 o'clock and 2 o'clock positions.
Animals were anesthetized with ketamine and dexmedetomidine. A topical anesthetic (0.5% proparacaine) was instilled in each eye before dose administration. A wire speculum was used to retract the eyelids. The eyes were cleaned with a 2.5% povidone iodine solution and then rinsed with sterile saline. Each animal was dosed using 1 cc tuberculin syringes and 30 gauge needles.
FA was performed at baseline, on days 22, 29 and 37 (approximately 14, 21 and 28 days post-laser). Digital ocular photographs were taken in conjunction with FA. The FA procedure is well known by people skilled in the art of ophthalmology.
Evaluation of FA was done according to the following grading system for evidence of excessive permeability (fluorescein leakage) or any other abnormalities.
Grade IV lesions are considered to be clinically significant as these most closely resemble the active forms of classical CNV seen in various human retinal disorders, including age-related macular degeneration. Comparison of the incidence of Grade IV lesions between treatment groups was evaluated.
Grade IV lesions were analyzed using either Fisher's exact probability test (2-Tail) or Chi square test (χ2). […]

As for `COc1ccc(S(=O)(=O)N[C@@H](CNc2nc(C)nc(N3CCC(c4ccc5c(n4)NCCC5)CC3)c2C)C(=O)O)cc1` [BOL-303050-X], the “HREC proliferation in the presence of VEGF, compound alone” value in assay [1] (1 nM) is “significantly reduced”. Further, the “HREC proliferation in the presence of VEGF, compound alone” value in assay [1] (10 nM) is given as “significantly reduced”. In addition, the “HREC proliferation under basal conditions” value in assay [1] (1 and 10 nM tested, no VEGF) was “significant effects were only observed at 10 nM”. Also, the “Combination effect with Avastin on VEGF-induced HREC proliferation (synergistic/additive)” value in assay [1] (compound 1 nM, Avastin 30 to 300 ng/ml) is recorded as “synergistic effects”. For the same compound, the “Combination effect with Avastin on VEGF-induced HREC proliferation (synergistic/additive)” value in assay [1] (compound 10 nM, Avastin at all doses) is “additive effect”. Further, the “Improvement of the potency of Avastin” value in assay [1] (compound at 1 and 10 nM) is 6- to 7 fold. In addition, in assay [2] (Day 22), the “Incidence of CNV lesions, Lesion Grade I (% Total)” value is listed as 126:148 (85.14) %; the “Incidence of CNV lesions, Lesion Grade II (% Total)” value is recorded as 12:148 (8.11) %; the “Incidence of CNV lesions, Lesion Grade III (% Total)” value is on record as 4:148 (2.70) %; the “Incidence of CNV lesions, Lesion Grade IV (% Total)” value was 4.05% and 6:148 (4.05) %. Besides, in assay [2] (Day 29), the “Incidence of CNV lesions, Lesion Grade I (% Total)” value is 132:150 (88.00) %; the “Incidence of CNV lesions, Lesion Grade II (% Total)” value is 11:150 (7.33) %; the “Incidence of CNV lesions, Lesion Grade III (% Total)” value is recorded as 3:150 (2.00) %; the “Incidence of CNV lesions, Lesion Grade IV (% Total)” value is 2.67% and 4:150 (2.67) %. In addition, in assay [2] (Day 37), the “Incidence of CNV lesions, Lesion Grade I (% Total)” value is 136:162 (83.95) %; the “Incidence of CNV lesions, Lesion Grade II (% Total)” value is 15:162 (9.26) %; the “Incidence of CNV lesions, Lesion Grade III (% Total)” value is on record as 8:162 (4.94) %; the “Incidence of CNV lesions, Lesion Grade IV (% Total)” value was 1.85% and 3:162 (1.85) %. Further, in assay [2], the “Overall grade IV lesions versus vehicle control group” value is “significantly reduced”, the “Incidence of grade IV lesions compared to vehicle control” value (shortened to “Incidence … compared to vehicle control”) was “reduced compared to vehicle-treated eyes” and the “Overall Grade IV lesions (%)” value was “(2.83)* %”.

As to `COc1c(NC[C@H](NC(=O)OCc2ccccc2)C(=O)O)ncnc1N1CCC(c2ccc3c(n2)NCCC3)CC1` [BOL-303054-X], in assay [2] (Day 22), the “Incidence of CNV lesions, Lesion Grade I (% Total)” value is listed as 79:133 (59.40) %; the “Incidence of CNV lesions, Lesion Grade II (% Total)” value is 1:133 (0.75) %; the “Incidence of CNV lesions, Lesion Grade III (% Total)” value was 8:133 (6.01) %; the “Incidence of CNV lesions, Lesion Grade IV (% Total)” value is recorded as 45:133 (33.83) %. For the same compound, in assay [2] (Day 29), the “Incidence of CNV lesions, Lesion Grade I (% Total)” value is given as 80:133 (60.15) %; the “Incidence of CNV lesions, Lesion Grade II (% Total)” value is reported as 5:133 (3.76) %; the “Incidence of CNV lesions, Lesion Grade III (% Total)” value is 2:133 (1.50) %; the “Incidence of CNV lesions, Lesion Grade IV (% Total)” value is given as 46:133 (34.59) %. Further, in assay [2] (Day 37), the “Incidence of CNV lesions, Lesion Grade I (% Total)” value is given as 83:136 (61.03) %; the “Incidence of CNV lesions, Lesion Grade II (% Total)” value is given as 6:136 (4.41) %; the “Incidence of CNV lesions, Lesion Grade III (% Total)” value was 5:136 (3.68) %; the “Incidence of CNV lesions, Lesion Grade IV (% Total)” value is listed as 41:136 (30.15) %. Also, in assay [2], the “Overall grade IV lesions versus vehicle control group” value was “not statistically significant”, the “Incidence … compared to vehicle control” value is “higher incidences of grade IV lesions compared to the vehicle control” and the “Overall Grade IV lesions (%)” value is “(32.84) %”.

As for `CCc1nc(NC[C@H](NC(=O)OCc2ccccc2)C(=O)O)c(C)c(N2CCC(c3ccc4c(n3)NCCC4)CC2)n1` [BOL-303055-X], in assay [1] (compound at 1 nM), the “Enhancement of Avastin potency” value was “approximately 6 fold”. In addition, the “Enhancement of Avastin potency” value in assay [1] (compound at 10 nM) is reported as ~7 fold. In assay [2] (Day 22), the “Incidence of CNV lesions, Lesion Grade I (% Total)” value was 73:162 (45.06) %; the “Incidence of CNV lesions, Lesion Grade II (% Total)” value is listed as 6:162 (3.7) %; the “Incidence of CNV lesions, Lesion Grade III (% Total)” value is 6:162 (3.70) %; the “Incidence of CNV lesions, Lesion Grade IV (% Total)” value was 47.53% and 77:162 (47.53) %. Further, in assay [2] (Day 29), the “Incidence of CNV lesions, Lesion Grade I (% Total)” value is 75:162 (46.3) %; the “Incidence of CNV lesions, Lesion Grade II (% Total)” value was 5:162 (3.09) %; the “Incidence of CNV lesions, Lesion Grade III (% Total)” value is reported as 12:162 (7.41) %; the “Incidence of CNV lesions, Lesion Grade IV (% Total)” value is 43.21% and 70:162 (43.21) %. Also, in assay [2] (Day 37), the “Incidence of CNV lesions, Lesion Grade I (% Total)” value is reported as 80:162 (49.38) %; the “Incidence of CNV lesions, Lesion Grade II (% Total)” value is listed as 7:162 (4.32) %; the “Incidence of CNV lesions, Lesion Grade III (% Total)” value was 5:162 (3.68) %; the “Incidence of CNV lesions, Lesion Grade IV (% Total)” value was 44.44% and 72:162 (44.44) %. Moreover, in assay [2], the “Overall grade IV lesions versus vehicle control group” value is given as “significantly increased”, the “Incidence … compared to vehicle control” value was “higher incidences of grade IV lesions compared to the vehicle control” and the “Overall Grade IV lesions (%)” value was “(45.06)* %”.

“bevacizumab [Avastin, reference compound]”: in assay [1] (3-300 ng/ml, significant from 10 ng/ml), the “Inhibition of VEGF-induced HREC proliferation by Avastin alone” value is given as “dose-dependent inhibition”. Also, the figures for the “IC50 of Avastin on VEGF-induced HREC proliferation” value in assay [1] (in the presence of BOL-303050-X 1 nM) and in assay [1] (in the presence of BOL-303050-X 10 nM) were 0.015 µg/mL and 0.013 µg/mL, respectively.
